These are literature values, as cited in PMC2978073 (Journal of medicinal chemistry, 2010).

The test system of data set [1] is rabbit model for cerebral palsy.
The conditions of data set [2]: compared with 3.

For the compound `Cc1cc(N)nc(C[C@H]2CNC[C@H]2NCCNCc2ccc(Cl)cc2)c1` (racemic) [(±)-2], in data set [1], the “effect on eNOS-regulated blood pressure” value is on record as “without affecting eNOS-regulated blood pressure”, the hypoxia-ischemia induced death result is “prevent hypoxia-ischemia induced death” and the “number of newborn kits exhibiting cerebral palsy phenotype” value was “reduce the number of newborn kits exhibiting cerebral palsy phenotype”.

For the compound `Cc1cc(N)nc(C[C@H]2CNC[C@H]2NCCNCCc2cccc(F)c2)c1` (racemic) [(±)-3], in data set [1], the “effect on eNOS-regulated blood pressure” value is listed as “without affecting eNOS-regulated blood pressure”, the hypoxia-ischemia induced death result is reported as “prevent hypoxia-ischemia induced death” and the “number of newborn kits exhibiting cerebral palsy phenotype” value is “reduce the number of newborn kits exhibiting cerebral palsy phenotype”.

Turning to `Cc1cc(N)nc(C[C@H]2CNC[C@H]2OCCNCCc2cccc(F)c2)c1` (racemic) [(±)-4], the bioavailability result in data set [2] is recorded as “improved bioavailability”.
